Tested on: groupe de huit goûteurs expérimentés
Experiment: Sweetening power judged by a panel of eight experienced tasters against a sucrose reference solution
Type: in vivo
Details: weight basis; for Pouvoir édulcorant: Table II, relative to a 2 % sucrose solution; for pouvoir édulcorant, sur une base pondérale: approximate
Excerpt: Le pouvoir édulcorant des composés préparés dans les exemples suivants a été évalué par un groupe de huit goûteurs expérimentés. Pour cela, les composés, en solution aqueuse à des concentrations variables, sont comparés, sur le plan gustatif, à une solution témoin de saccharose à 2 % et dans certains cas à 5 % et 10 %, c'est-à-dire à des concentrations correspondant à celles utilisées lors d'un usage courant. Le pouvoir sucrant des édulcorants de synthèse varie en effet suivant la concentration de la solution de saccharose utilisée comme référence. Le pouvoir édulcorant du composé testé par rapport au saccharose correspond alors au rapport pondéral qui existe entre le composé et le saccharose à égale intensité édulcorante, c'est-à-dire quand les saveurs sucrées de la solution du composé testé et de la solution témoin de saccharose sont considérées, par une majorité de goûteurs, avoir la même intensité édulcorante.

[1] = by comparison with a 2 % sucrose solution
[2] = by comparison with a 5 % sucrose solution
[3] = by comparison with a 10 % sucrose solution

Question: What does the source list for `C[C@H](NC(=Nc1ccc(C(F)(F)F)cc1)NCC(=O)O)c1ccccc1` [Exemple 11, acide N-[N-(S)-α-méthylbenzylamino (4-trifluorométhylphénylimino)méthyl]-2-aminoéthanoïque]?
Answer: Pouvoir édulcorant: 500; pouvoir édulcorant, sur une base pondérale [1]: ~500 fois celui du saccharose

Question: Which Pouvoir édulcorant does the source give for `O=C(O)CNC(=Nc1cccc2ccccc12)Nc1cc(Cl)cc(Cl)c1` [Exemple 68, acide N-[N-1-naphtylamino (3,5-dichlorophénylimino)méthyl]-2-aminoéthanoïque] here?
Answer: Its Pouvoir édulcorant is 30000.

Question: And the “pouvoir édulcorant, sur une base pondérale” value [1]?
Answer: The value was ~30 000 fois celui du saccharose.

Question: `N#Cc1ccc(N=C(NCC(=O)O)NC2CCCCCCC2)cc1Cl` [Exemple 49, acide N-[N-cyclooctylamino(3-chloro-4-cyanophénylimino)méthyl]-2-aminoéthanoïque] was tested. Which Pouvoir édulcorant did it give?
Answer: Its Pouvoir édulcorant is 100000.

Question: And the “pouvoir édulcorant, sur une base pondérale” value [1]?
Answer: Its value is ~100 000 fois celui du saccharose.

Question: Which “Pouvoir édulcorant” value does the source give for `CCc1cccc(N=C(NCC(=O)O)N[C@@H](C)c2ccccc2)c1` [Exemple 5, acide N-[N-(S) -α-méthylbenzylamino (3-éthylphénylimino)méthyl]-2-aminoéthanoïque] here?
Answer: The value was 4 500.

Question: What about the “pouvoir édulcorant, sur une base pondérale” value [1] of the same compound?
Answer: The value was ~4 500 fois celui du saccharose.

Question: `CCN(Cc1ccccc1)C(=Nc1ccc(C#N)cc1)NCC(=O)O` [Exemple 34, acide N-[N-éthyl-N-benzylamino (4-cyanophénylimino)méthyl]-2-aminoéthanoïque] was tested. Which Pouvoir édulcorant did it give?
Answer: The Pouvoir édulcorant was 3000.

Question: And the “pouvoir édulcorant, sur une base pondérale” value [1]?
Answer: The value was ~3 000 fois celui du saccharose.

Question: For `C[C@H](NC(=Nc1cc(Cl)cc(Cl)c1)NCC(=O)O)c1ccccc1` [Exemple 26, acide N-[N-(S)-α-méthylbenzylamino (3,5-dichlorophénylimino)méthyl]-2-aminoéthanoïque], which Pouvoir édulcorant is on record?
Answer: The Pouvoir édulcorant was 120000.

Question: And the “pouvoir édulcorant, sur une base pondérale” value [1]?
Answer: The value was ~120 000 fois celui du saccharose.

Question: And the “pouvoir édulcorant, sur une base pondérale” value [2]?
Answer: The value was ~90 000 fois celui du saccharose.

Question: And the “pouvoir édulcorant, sur une base pondérale” value [3]?
Answer: Its value is ~50 000 fois celui du saccharose.

Question: `C[C@@H](NC(=Nc1ccc(C#N)cc1)NC1CCCCC1)C(=O)O` [Exemple 85, acide (R)-N-[N-cyclohexylamino (4-cyanophénylimino)méthyl]-2-aminopropanoïque] was tested. Which “Pouvoir édulcorant” value did it give?
Answer: Its value is 100.

Question: What about the “pouvoir édulcorant, sur une base pondérale” value [1] of the same compound?
Answer: The value was roughly 100 fois celui du saccharose.

Question: What does the source list for `N#Cc1ccc(N=C(NCC(=O)O)NCC23CC4CC(CC(C4)C2)C3)cc1` [Exemple 72, acide N-[N-(l-adamantylméthyl)amino(4-cyanophénylimino)méthyl]-2-aminoéthanoïque]?
Answer: Pouvoir édulcorant: 23000; pouvoir édulcorant, sur une base pondérale [1]: ~23 000 fois celui du saccharose

Question: How did the “Pouvoir édulcorant” value turn out when `C[C@H](NC(=Nc1ccc(O)cc1)NCC(=O)O)c1ccccc1` [Exemple 20, acide N-[N-(S)-α-méthylbenzylamino (4-hydroxyphénylimino)méthyl]-2-aminoéthanoïque] was run?
Answer: The value was 400.

Question: What about the “pouvoir édulcorant, sur une base pondérale” value [1] of the same compound?
Answer: Its value is roughly 400 fois celui du saccharose.

Question: What does the source list for `C[C@H](NC(=Nc1cc(Cl)cc(Cl)c1)NCC(=O)O)C1CCCCC1` [Exemple 63, acide N-[N-(S)-l-cyclohexyléthylamino(3,5-dichlorophénylimino)méthyl]-2-aminoéthanoïque]?
Answer: Pouvoir édulcorant: 70000; pouvoir édulcorant, sur une base pondérale [1]: ~70 000 fois celui du saccharose

Question: `CC(C)CCNC(=Nc1ccc(C#N)cc1)NCC(=O)O` [Exemple 37, acide N-[N-(3-méthylbutyl)amino (4-cyanophénylimino)méthyl)-2-aminoéthanoïque] was tested. Which “Pouvoir édulcorant” value did it give?
Answer: Its value is 200.

Question: And the “pouvoir édulcorant, sur une base pondérale” value [1]?
Answer: Its value is roughly 200 fois celui du saccharose.

Question: `N#Cc1ccc(N=C(NCC(=O)O)NN2CCOCC2)cc1` [Exemple 77, acide N-[N-morpholinoamino(4-cyano-phénylimino)méthyl]-2-aminoéthanoïque] was tested. Which “Pouvoir édulcorant” value did it give?
Answer: Its value is 950.

Question: And the “pouvoir édulcorant, sur une base pondérale” value [1]?
Answer: Its value is roughly 950 fois celui du saccharose.

Question: How did the “Pouvoir édulcorant” value turn out when `COC(=O)c1ccc(N=C(NCC(=O)O)N[C@@H](C)c2ccccc2)cc1` [Exemple 16, acide N-[N-(S)-α-méthylbenzylamino (4-méthoxycarbonylphénylimino)méthyl]-2-aminoéthanoïque] was run?
Answer: Its value is 700.

Question: And the “pouvoir édulcorant, sur une base pondérale” value [1]?
Answer: Its value is roughly 700 fois celui du saccharose.

Question: How did the Pouvoir édulcorant turn out when `O=C(O)CNC(=Nc1cc(Cl)cc(Cl)c1)NC1CCCCCCC1` [Exemple 46, acide N-[N-cyclooctylamino (3,5-dichlorophénylimino)méthyl]-2-aminoéthanoïque] was run?
Answer: Its Pouvoir édulcorant is 60000.

Question: What about the “pouvoir édulcorant, sur une base pondérale” value [1] of the same compound?
Answer: Its value is ~60 000 fois celui du saccharose.

Question: Which “Pouvoir édulcorant” value does the source give for `CC1(NC(=Nc2ccc(C#N)cc2)NCC(=O)O)CCCCC1` [Exemple 67] here?
Answer: The value was 100.

Question: What about the “pouvoir édulcorant, sur une base pondérale” value [1] of the same compound?
Answer: The value was roughly 100 fois celui du saccharose.

Question: `CN(C(=NCc1ccccc1)NCC(=O)O)c1ccccc1` [Exemple 84, acide N-[benzylimino(N-méthyl-N-phénylamino)méthyl]-2-aminoéthanoïque] was tested. Which “Pouvoir édulcorant” value did it give?
Answer: The value was 200.

Question: And the “pouvoir édulcorant, sur une base pondérale” value [1]?
Answer: Its value is roughly 200 fois celui du saccharose.

Question: How did the Pouvoir édulcorant turn out when `COc1cc(NC(=N[C@@H](C)c2ccccc2)NCC(=O)O)cc(C(F)(F)F)c1` [Exemple 24, acide N-[N-(S)-α-méthylbenzylamino (3-trifluorométhyl-5-méthoxyphénylimino)méthyl]-2-amino-éthanoïque] was run?
Answer: The Pouvoir édulcorant was 7000.

Question: What about the “pouvoir édulcorant, sur une base pondérale” value [1] of the same compound?
Answer: Its value is ~7 000 fois celui du saccharose.

Question: What does the source list for `CC(C)(C)CC(C)(C)NC(=Nc1ccc(C#N)cc1)NCC(=O)O` [Exemple 39, acide N-[N-(1,1,3,3-tétraméthylbut-yl)amino(4-cyanophénylimino)méthyl]-2-aminoéthanoïque]?
Answer: Pouvoir édulcorant: 1 200; pouvoir édulcorant, sur une base pondérale [1]: ~1 200 fois celui du saccharose

Question: Which “Pouvoir édulcorant” value does the source give for `C[C@H](NC(=Nc1cccc(C#N)c1)NCC(=O)O)c1ccccc1` [Exemple 7, acide N-[N-(S)-α-méthylbenzylamino (3-cyanophénylimino)méthyl]-2-aminoéthanoïque] here?
Answer: Its value is 5 500.

Question: And the “pouvoir édulcorant, sur une base pondérale” value [1]?
Answer: Its value is ~5 500 fois celui du saccharose.

Question: How did the “Pouvoir édulcorant” value turn out when `CC(NC(=Nc1cc(Cl)cc(Cl)c1)N[C@H](C)C(=O)O)c1ccccc1` (stereo partly drawn) [Exemple 86, acide (R)-N-[N-(S)-α-méthylbenzylamino(3,5-dichlorophénylimino)méthyl]-2-aminopropanoïque] was run?
Answer: The value was 120.

Question: And the “pouvoir édulcorant, sur une base pondérale” value [1]?
Answer: Its value is roughly 120 fois celui du saccharose.

Question: How did the Pouvoir édulcorant turn out when `N#Cc1cccc(N=C(NCC(=O)O)NCC2CCCCC2)c1` [Exemple 56, acide N-[N-cyclohexylméthylamino (3-cyanophénylimino)méthyl]-2-aminoéthanoïque] was run?
Answer: Its Pouvoir édulcorant is 5000.

Question: And the “pouvoir édulcorant, sur une base pondérale” value [1]?
Answer: Its value is ~5 000 fois celui du saccharose.

Question: Which “Pouvoir édulcorant” value does the source give for `CCC(C)(C)NC(=Nc1ccc(C#N)cc1)NCC(=O)O` [Exemple 38, acide N-[N-(1,1-diméthylpropyl)amino(4-cyanophénylimino)méthyl]-2-aminoéthanoïque] here?
Answer: The value was 300.

Question: And the “pouvoir édulcorant, sur une base pondérale” value [1]?
Answer: The value was roughly 300 fois celui du saccharose.

Question: Which Pouvoir édulcorant does the source give for `C[C@H](NC(=Nc1cccc([N+](=O)[O-])c1)NCC(=O)O)c1ccccc1` [Exemple 8, acide N-[N-(S)-α-méthylbenzylamino (3-nitrophénylimino)méthyl] -2-aminoéthanoique] here?
Answer: The Pouvoir édulcorant was 6000.

Question: And the “pouvoir édulcorant, sur une base pondérale” value [1]?
Answer: Its value is ~6 000 fois celui du saccharose.

Question: Which results are given for `O=C(O)CNC(=Nc1cc(Cl)cc(Cl)c1)NCC1CCCCC1` [Exemple 57, acide N-[N-cyclohexylméthylamino (3,5-dichlorophénylimino)méthyl]-2-aminoéthanoïque]?
Answer: Pouvoir édulcorant: 35000; pouvoir édulcorant, sur une base pondérale [1]: ~35 000 fois celui du saccharose

Question: How did the “Pouvoir édulcorant” value turn out when `N#CC(C#N)=C(NCC(=O)O)Nc1cc(Cl)cc(Cl)c1` [Exemple 30, acide N-[2,2-dicyano(3,5-dichlorophénylamino)éthényl]-2-aminoéthanoïque] was run?
Answer: The value was 30.

Question: What does the source list for `N#Cc1ccc(N=C(NCC(=O)O)Nc2cccc3ccccc23)cc1` [Exemple 69, acide N-[N-1-naphtylamino(4-cyanophénylimino)méthyl)-2-aminoéthanoïque]?
Answer: Pouvoir édulcorant: 60000; pouvoir édulcorant, sur une base pondérale [1]: ~60 000 fois celui du saccharose

Question: Which Pouvoir édulcorant does the source give for `O=C(O)CNC(=Nc1ccc([N+](=O)[O-])cc1)NCC1CCCCC1` [Exemple 62, acide N-[N-cyclohexylméthylamino(4-nitrophénylimino)méthyl]-2-aminoéthanoïque] here?
Answer: The Pouvoir édulcorant was 8000.

Question: And the “pouvoir édulcorant, sur une base pondérale” value [1]?
Answer: The value was ~8 000 fois celui du saccharose.

Question: What about the “pouvoir édulcorant, sur une base pondérale” value [2] of the same compound?
Answer: Its value is ~7 500 fois celui du saccharose.

Question: And the “pouvoir édulcorant, sur une base pondérale” value [3]?
Answer: The value was ~4 000 fois celui du saccharose.

Question: How did the Pouvoir édulcorant turn out when `N#Cc1ccc(N=C(NCC(=O)O)Nc2ccccc2)cc1` [Exemple 41, acide N-[N-phénylamino(4-cyanophénylimino)méthyl]-2-aminoéthanoïque] was run?
Answer: Its Pouvoir édulcorant is 4000.

Question: And the “pouvoir édulcorant, sur une base pondérale” value [1]?
Answer: The value was ~4 000 fois celui du saccharose.

Question: And the “pouvoir édulcorant, sur une base pondérale” value [2]?
Answer: Its value is ~1 800 fois celui du saccharose.

Question: What about the “pouvoir édulcorant, sur une base pondérale” value [3] of the same compound?
Answer: Its value is roughly 650 fois celui du saccharose.

Question: Which “Pouvoir édulcorant” value does the source give for `O=C(O)CNC(=Nc1ccccc1)NCC1CCCCC1` [Exemple 55, acide N-[N-cyclohexylméthylamino (phénylimino)méthyl]-2-aminoéthanoïque] here?
Answer: The value was 3 300.

Question: And the “pouvoir édulcorant, sur une base pondérale” value [1]?
Answer: The value was ~3 300 fois celui du saccharose.

Question: What about the “pouvoir édulcorant, sur une base pondérale” value [2] of the same compound?
Answer: The value was ~2 500 fois celui du saccharose.

Question: And the “pouvoir édulcorant, sur une base pondérale” value [3]?
Answer: The value was ~2 000 fois celui du saccharose.

Question: What does the source list for `N#Cc1ccc(N=C(NCC(=O)O)NC2CCCCC2)cc1` [Exemple 43, acide N-[N-cyclohexylamino(4-cyanophénylimino)méthyl]-2-aminoéthanoïque]?
Answer: Pouvoir édulcorant: 12000; pouvoir édulcorant, sur une base pondérale [1]: ~12 000 fois celui du saccharose; pouvoir édulcorant, sur une base pondérale [2]: ~10 500 fois celui du saccharose; pouvoir édulcorant, sur une base pondérale [3]: ~8 500 fois celui du saccharose

From EP0241395A2, “Sweeteners derived from n-phenylguanidinoacetic and n-phenylethananamidinacetic acids, and compositions containing such sweeteners” (UNIVERSITE CLAUDE BERNARD - LYON 1, priority 1986, dated 1987)
